The source of these data is patent publication US20110136666A1, “CHEMICAL COMPOUNDS” (SYNGENTA CROP PROTECTION, INC., priority 2008, published 2011).

The first assay concerns Alopecurus myosuroides (ALOMY). In words: Pre-emergence biological efficacy, glasshouse pot test. Format: in vivo. The conditions noted are these: 312 h, 250 g/ha, after 13 days, 100=total damage, 0=no damage, read-out: Percentage damage caused to weed species ALOMY. As to the method:
(§1) Seeds of Alopecurus myosuroides (ALOMY), Setaria faberi (SETFA), Echinochloa crus-galli (ECHCG), Solanum nigrum (SOLNI), Amaranthus retroflexus (AMARE) and Ipomea hederaceae (IPOHE) were sown in standard soil in pots. After cultivation for one day under controlled conditions in a glasshouse (at 24/16° C., day/night; 14 hours light; 65% humidity), the plants were sprayed with an aqueous spray solution derived from the formulation of the technical active ingredient in acetone/water (50:50) solution containing 0.5% Tween 20 (polyoxyethylene sorbitan monolaurate, CAS RN 9005-64-5) to give a final dose of 250 or 1000 g/ha of test compound.
(§2) The test plants were then grown under controlled conditions in the glasshouse (at 24/16° C., day/night; 14 hours light; 65% humidity) and watered twice daily. After 13 days the test was evaluated (100=total damage to plant; 0=no damage to plant).
Take `COC(=O)c1nc(-c2c(C)n[nH]c2C)nc(N)c1Cl` [Compound 2-72, 4-Amino-5-chloro-2-(3,5-dimethylpyrazol-4-yl)-6-methoxycarbonyl pyrimidine]: the pest or weed control at 250 g/ha amounted to 0%.

Staying with this assay, now noted: 312 h, 1000 g/ha, after 13 days, 100=total damage, 0=no damage, read-out: Percentage damage caused to weed species ALOMY.
As for `COC(=O)c1nc(-c2cc(Cl)sc2Cl)nc(N)c1Cl` [Compound 2-19, 4-Amino-5-chloro-2-(2,5-dichlorothiophen-3-yl)-6-methoxycarbonyl pyrimidine], the pest or weed control at 1000 g/ha amounted to 0%.

In a further assay the test system is Amaranthus retroflexus (AMARE). Described as above. The conditions noted are these: 312 h, 250 g/ha, after 13 days, 100=total damage, 0=no damage, read-out: Percentage damage caused to weed species AMARE. Format: in vivo. As to the method: as §1, §2
As to `COC(=O)c1nc(-c2c(C)n[nH]c2C)nc(N)c1Cl` [Compound 2-72, 4-Amino-5-chloro-2-(3,5-dimethylpyrazol-4-yl)-6-methoxycarbonyl pyrimidine], the pest or weed control at 250 g/ha was found to be 0%.

Staying with this assay, now noted: 312 h, 1000 g/ha, after 13 days, 100=total damage, 0=no damage, read-out: Percentage damage caused to weed species AMARE.
As for `COC(=O)c1nc(-c2cc(Cl)sc2Cl)nc(N)c1Cl` [Compound 2-19, 4-Amino-5-chloro-2-(2,5-dichlorothiophen-3-yl)-6-methoxycarbonyl pyrimidine], the pest or weed control at 1000 g/ha was found to be 20%.

The test system of another assay is Echinochloa crus-galli (ECHCG). Described as above. Format: in vivo. The settings on record: 312 h, 250 g/ha, after 13 days, 100=total damage, 0=no damage, read-out: Percentage damage caused to weed species ECHCG. Here is the method:
as §1, §2
As for `COC(=O)c1nc(-c2c(C)n[nH]c2C)nc(N)c1Cl` [Compound 2-72, 4-Amino-5-chloro-2-(3,5-dimethylpyrazol-4-yl)-6-methoxycarbonyl pyrimidine], the pest or weed control at 250 g/ha amounted to 0%.

The same assay, now with this note: 312 h, 1000 g/ha, after 13 days, 100=total damage, 0=no damage, read-out: Percentage damage caused to weed species ECHCG.
With `COC(=O)c1nc(-c2cc(Cl)sc2Cl)nc(N)c1Cl` [Compound 2-19, 4-Amino-5-chloro-2-(2,5-dichlorothiophen-3-yl)-6-methoxycarbonyl pyrimidine], the pest or weed control at 1000 g/ha was determined as 0%.

The test system of another assay is Ipomea hederaceae (IPOHE). Described as above. Type of assay: in vivo. The conditions noted are these: Ipomoea hederacea, 312 h, 250 g/ha, after 13 days, 100=total damage, 0=no damage, read-out: Percentage damage caused to weed species IPOHE. Here is the method: as §1, §2
As for `COC(=O)c1nc(-c2c(C)n[nH]c2C)nc(N)c1Cl` [Compound 2-72, 4-Amino-5-chloro-2-(3,5-dimethylpyrazol-4-yl)-6-methoxycarbonyl pyrimidine], the pest or weed control at 250 g/ha was 0%.

The assay is the same for the next values; noted with them: Ipomoea hederacea, 312 h, 1000 g/ha, after 13 days, 100=total damage, 0=no damage, read-out: Percentage damage caused to weed species IPOHE.
In the case of `COC(=O)c1nc(-c2cc(Cl)sc2Cl)nc(N)c1Cl` [Compound 2-19, 4-Amino-5-chloro-2-(2,5-dichlorothiophen-3-yl)-6-methoxycarbonyl pyrimidine], the pest or weed control at 1000 g/ha was determined as 30%.

In a further assay the test system is Setaria faberi (SETFA). Described as above. Type of assay: in vivo. The settings on record: 312 h, 250 g/ha, after 13 days, 100=total damage, 0=no damage, read-out: Percentage damage caused to weed species SETFA. As to the method:
as §1, §2
Turning to `COC(=O)c1nc(-c2c(C)n[nH]c2C)nc(N)c1Cl` [Compound 2-72, 4-Amino-5-chloro-2-(3,5-dimethylpyrazol-4-yl)-6-methoxycarbonyl pyrimidine], the pest or weed control at 250 g/ha was found to be 0%.

Still in this assay, the particulars now being: 312 h, 1000 g/ha, after 13 days, 100=total damage, 0=no damage, read-out: Percentage damage caused to weed species SETFA.
In the case of `COC(=O)c1nc(-c2cc(Cl)sc2Cl)nc(N)c1Cl` [Compound 2-19, 4-Amino-5-chloro-2-(2,5-dichlorothiophen-3-yl)-6-methoxycarbonyl pyrimidine], the pest or weed control at 1000 g/ha was found to be 0%.

Another assay deals with Solanum nigrum (SOLNI). Described as above. Format: in vivo. The settings on record: 312 h, 250 g/ha, after 13 days, 100=total damage, 0=no damage, read-out: Percentage damage caused to weed species SOLNI. As to the method:
as §1, §2
Take `COC(=O)c1nc(-c2c(C)n[nH]c2C)nc(N)c1Cl` [Compound 2-72, 4-Amino-5-chloro-2-(3,5-dimethylpyrazol-4-yl)-6-methoxycarbonyl pyrimidine]: the pest or weed control at 250 g/ha stood at 0%.

The same assay, now with this note: 312 h, 1000 g/ha, after 13 days, 100=total damage, 0=no damage, read-out: Percentage damage caused to weed species SOLNI.
In the case of `COC(=O)c1nc(-c2cc(Cl)sc2Cl)nc(N)c1Cl` [Compound 2-19, 4-Amino-5-chloro-2-(2,5-dichlorothiophen-3-yl)-6-methoxycarbonyl pyrimidine], the pest or weed control at 1000 g/ha was determined as 20%.

The test system of a further assay is Alopecurus myosuroides (ALOMY). In words: Post-emergence biological efficacy, glasshouse pot test. Format: in vivo. The conditions noted are these: 312 h, 250 g/ha, after 13 days, 100=total damage, 0=no damage, read-out: Percentage damage caused to weed species ALOMY. As to the method:
as §1, with “8 days” for “one day”
(§3) The test plants were then grown on under controlled conditions in a glasshouse (at 24/16° C., day/night; 14 hours light; 65% humidity) and watered twice daily. After 13 days the test was evaluated (100=total damage to plant; 0=no damage to plant).
On to `COC(=O)c1nc(-c2c(C)n[nH]c2C)nc(N)c1Cl` [Compound 2-72, 4-Amino-5-chloro-2-(3,5-dimethylpyrazol-4-yl)-6-methoxycarbonyl pyrimidine], for which the pest or weed control at 250 g/ha stood at 0%.

The assay is the same for the next values; noted with them: 312 h, 1000 g/ha, after 13 days, 100=total damage, 0=no damage, read-out: Percentage damage caused to weed species ALOMY.
For the compound `COC(=O)c1nc(-c2cc(Cl)sc2Cl)nc(N)c1Cl` [Compound 2-19, 4-Amino-5-chloro-2-(2,5-dichlorothiophen-3-yl)-6-methoxycarbonyl pyrimidine], the pest or weed control at 1000 g/ha is 0%.

The test system of the next assay is Amaranthus retroflexus (AMARE). Described as above. Format: in vivo. The conditions noted are these: 312 h, 250 g/ha, after 13 days, 100=total damage, 0=no damage, read-out: Percentage damage caused to weed species AMARE. Here is the method: as §1, with “8 days” for “one day”
as §3
In the case of `COC(=O)c1nc(-c2c(C)n[nH]c2C)nc(N)c1Cl` [Compound 2-72, 4-Amino-5-chloro-2-(3,5-dimethylpyrazol-4-yl)-6-methoxycarbonyl pyrimidine], the pest or weed control at 250 g/ha was found to be 0%.

The same assay, now with this note: 312 h, 1000 g/ha, after 13 days, 100=total damage, 0=no damage, read-out: Percentage damage caused to weed species AMARE.
Take `COC(=O)c1nc(-c2cc(Cl)sc2Cl)nc(N)c1Cl` [Compound 2-19, 4-Amino-5-chloro-2-(2,5-dichlorothiophen-3-yl)-6-methoxycarbonyl pyrimidine]: the pest or weed control at 1000 g/ha worked out at 100%.

The test system of a further assay is Echinochloa crus-galli (ECHCG). The description is as above. The conditions noted are these: 312 h, 250 g/ha, after 13 days, 100=total damage, 0=no damage, read-out: Percentage damage caused to weed species ECHCG. Format: in vivo. As to the method:
as §1, with “8 days” for “one day”
as §3
In the case of `COC(=O)c1nc(-c2c(C)n[nH]c2C)nc(N)c1Cl` [Compound 2-72, 4-Amino-5-chloro-2-(3,5-dimethylpyrazol-4-yl)-6-methoxycarbonyl pyrimidine], the pest or weed control at 250 g/ha came to 0%.

Staying with this assay, now noted: 312 h, 1000 g/ha, after 13 days, 100=total damage, 0=no damage, read-out: Percentage damage caused to weed species ECHCG.
`COC(=O)c1nc(-c2cc(Cl)sc2Cl)nc(N)c1Cl` [Compound 2-19, 4-Amino-5-chloro-2-(2,5-dichlorothiophen-3-yl)-6-methoxycarbonyl pyrimidine]: the pest or weed control at 1000 g/ha turned out to be 10%.

The next assay relates to Ipomea hederaceae (IPOHE). The description is as above. Format: in vivo. The settings on record: Ipomoea hederacea, 312 h, 250 g/ha, after 13 days, 100=total damage, 0=no damage, read-out: Percentage damage caused to weed species IPONE. As to the method: as §1, with “8 days” for “one day”
as §3
`COC(=O)c1nc(-c2c(C)n[nH]c2C)nc(N)c1Cl` [Compound 2-72, 4-Amino-5-chloro-2-(3,5-dimethylpyrazol-4-yl)-6-methoxycarbonyl pyrimidine]: the pest or weed control at 250 g/ha was 0%.

The same assay, now with this note: Ipomoea hederacea, 312 h, 1000 g/ha, after 13 days, 100=total damage, 0=no damage, read-out: Percentage damage caused to weed species IPONE.
For `COC(=O)c1nc(-c2cc(Cl)sc2Cl)nc(N)c1Cl` [Compound 2-19, 4-Amino-5-chloro-2-(2,5-dichlorothiophen-3-yl)-6-methoxycarbonyl pyrimidine], the pest or weed control at 1000 g/ha was found to be 70%.

The next assay deals with Setaria faberi (SETFA). Described as above. Type of assay: in vivo. The conditions noted are these: 312 h, 250 g/ha, after 13 days, 100=total damage, 0=no damage, read-out: Percentage damage caused to weed species SETFA. As to the method: as §1, with “8 days” for “one day”
as §3
Take `COC(=O)c1nc(-c2c(C)n[nH]c2C)nc(N)c1Cl` [Compound 2-72, 4-Amino-5-chloro-2-(3,5-dimethylpyrazol-4-yl)-6-methoxycarbonyl pyrimidine]: the pest or weed control at 250 g/ha was 0%.

Still in this assay, the particulars now being: 312 h, 1000 g/ha, after 13 days, 100=total damage, 0=no damage, read-out: Percentage damage caused to weed species SETFA.
On to `COC(=O)c1nc(-c2cc(Cl)sc2Cl)nc(N)c1Cl` [Compound 2-19, 4-Amino-5-chloro-2-(2,5-dichlorothiophen-3-yl)-6-methoxycarbonyl pyrimidine], for which the pest or weed control at 1000 g/ha worked out at 30%.

The subject of another assay is Solanum nigrum (SOLNI). The assay is described as above. The settings on record: 312 h, 250 g/ha, after 13 days, 100=total damage, 0=no damage, read-out: Percentage damage caused to weed species SOLNI. Format: in vivo. As to the method: as §1, with “8 days” for “one day”
as §3
As to `COC(=O)c1nc(-c2c(C)n[nH]c2C)nc(N)c1Cl` [Compound 2-72, 4-Amino-5-chloro-2-(3,5-dimethylpyrazol-4-yl)-6-methoxycarbonyl pyrimidine], the pest or weed control at 250 g/ha came to 0%.

Still in this assay, the particulars now being: 312 h, 1000 g/ha, after 13 days, 100=total damage, 0=no damage, read-out: Percentage damage caused to weed species SOLNI.
Consider `COC(=O)c1nc(-c2cc(Cl)sc2Cl)nc(N)c1Cl` [Compound 2-19, 4-Amino-5-chloro-2-(2,5-dichlorothiophen-3-yl)-6-methoxycarbonyl pyrimidine], for which the pest or weed control at 1000 g/ha stood at 70%.
